# Assay results as given in paper PMC7956819, “Peptides from the Intestinal Tract of Breast Milk-Fed Infants Have Antimicrobial and Bifidogenic Activity” (International Journal of Molecular Sciences, 2021).
# “Also recorded” adds a separate entry of the source. Peptide text beside a SMILES is read from it.
# How the values were obtained:
# [1] = test system: Bifidobacterium longum spp. infantis ATCC 15697; type: cell-based; details: ATCC 15697, 18 h
# Protocol: (§1) The bioactivity of the intestinal peptide extracts was determined via the microdilution method. Antimicrobial activity was screened with E. coli and S. aureus as representatives of common infant pathogens responsible for infectious disease, and growth-promoting activity was screened with B. infantis, one of the ideal colonizers of the infant gut. For the antimicrobial assays, colonies of bacteria were selected and inoculated in 2 mL of MHB and incubated at 37 °C for 24 h. The inoculum was diluted to 2 × 10^5 CFU/mL with MHB. For the growth-promoting assays, 100 µL of stock bacteria were inoculated in 10 mL of reinforced clostridial broth supplemented with 0.1% ascorbic acid and incubated under anaerobic conditions (BD BBL™ GasPak™) at 37 °C for 24 h. Optical density was measured at 600 nm, and the inoculum was diluted to an optical density of 0.05 with reinforced clostridial broth.
# (§2) The intestinal peptide extracts were serially diluted with PBS to concentrations of 1×, 1/2×, 1/4×, 1/8×, 1/16×, 1/32×, 1/64×, and 1/128×. In a 96-well plate, 50 µL of each dilution was incubated with 50 µL of inoculum in duplicate, along with a negative control of 50 µL of inoculum with 50 µL of pure PBS and a sterility test of 50 µL of peptide with 50 µL of broth. Growth was determined by optical density readings at 600 nm (OD600) taken at 0 h (T0) and 18 h (T18). The following equation was used to determine percent inhibition or promotion of bacterial growth:
# (§3) Candidate peptides were synthesized and dissolved in sterile nanopure water. Antimicrobial and growth-promoting assays were carried out as described above with serial dilutions ranging from […] to 15.6 μg/mL. Minimum inhibitory concentration (MIC) was determined by the concentration at which all visible growth was inhibited.
# [2] = test system: Staphylococcus aureus ATCC 12600; type: cell-based; details: ATCC 12600, 18 h
# Protocol: as §1, §2, §3
# [3] = test system: Escherichia coli BL21 (DE3); type: cell-based; details: BL21, 18 h
# Protocol: as §1, §2, §3
# [4] = function listed in the MBPDB for the identical sequence; not tested here; cited from earlier work
# From the text: page 3: Ta ble S1. List of known bioactive peptides in the infant intestinal samples.
compound,measurement,setting,value
CC[C@H](C)[C@H](NC(=O)[C@@H]1CCCN1C(=O)[C@H](CCC(N)=O)NC(=O)[C@@H]1CCCN1C(=O)[C@@H](NC(=O)[C@H](CCC(N)=O)NC(=O)[C@H](CCC(N)=O)NC(=O)[C@H](CCSC)NC(=O)[C@H](CC(C)C)NC(=O)[C@@H]1CCCN1C(=O)[C@H](CCC(N)=O)NC(=O)[C@H](CC(C)C)NC(=O)[C@H](CC(C)C)NC(=O)[C@@H]1CCCN1C(=O)[C@H](CC(C)C)NC(=O)[C@@H]1CCCN1C(=O)[C@H](CC(C)C)NC(=O)[C@@H](N)Cc1c[nH]cn1)C(C)C)C(=O)O [Peptide 1] (H-HLPLPLLQPLMQQVPQPI-OH),B. infantis MIC,[1],>3000 µg/mL
same,S. aureus MIC,[2],>3000 µg/mL
same,E. coli MIC,[3],>3000 µg/mL
CC[C@H](C)[C@H](NC(=O)[C@H](CCC(N)=O)NC(=O)[C@H](Cc1c[nH]cn1)NC(=O)[C@@H](NC(=O)[C@@H]1CCCN1C(=O)[C@H](CC(N)=O)NC(=O)[C@H](CC(C)C)NC(=O)[C@@H](N)CC(C)C)[C@@H](C)O)C(=O)N[C@@H](Cc1ccc(O)cc1)C(=O)N1CCC[C@H]1C(=O)N[C@H](C(=O)N[C@H](C(=O)N[C@@H](CCC(N)=O)C(=O)N1CCC[C@H]1C(=O)N[C@@H](CC(C)C)C(=O)N[C@@H](C)C(=O)N1CCC[C@H]1C(=O)N[C@H](C(=O)N[C@@H](Cc1c[nH]cn1)C(=O)N[C@@H](CC(N)=O)C(=O)N1CCC[C@H]1C(=O)N[C@H](C(=O)N[C@@H](CO)C(=O)O)[C@@H](C)CC)C(C)C)[C@@H](C)O)C(C)C [Peptide 2] (H-LLNPTHQIYPVTQPLAPVHNPIS-OH),B. infantis MIC,[1],>3000 µg/mL
same,S. aureus MIC,[2],>3000 µg/mL
same,E. coli MIC,[3],>3000 µg/mL
CC[C@H](C)[C@H](NC(=O)[C@H](CCC(N)=O)NC(=O)[C@@H](N)Cc1c[nH]cn1)C(=O)N[C@@H](Cc1ccc(O)cc1)C(=O)N1CCC[C@H]1C(=O)N[C@H](C(=O)N[C@H](C(=O)N[C@@H](CCC(N)=O)C(=O)N1CCC[C@H]1C(=O)N[C@@H](CC(C)C)C(=O)O)[C@@H](C)O)C(C)C [Peptide 3] (H-HQIYPVTQPL-OH; N-terminus and C-terminus assumed),B. infantis MIC,[1],>3000 µg/mL
same,S. aureus MIC,[2],>3000 µg/mL
same,E. coli MIC,[3],>3000 µg/mL
CC[C@H](C)[C@H](NC(=O)[C@@H]1CCCN1C(=O)[C@H](CC(N)=O)NC(=O)[C@H](Cc1c[nH]cn1)NC(=O)[C@@H](NC(=O)[C@@H]1CCCN1C(=O)[C@H](C)NC(=O)[C@@H](N)CC(C)C)C(C)C)C(=O)O [Peptide 4] (H-LAPVHNPI-OH),B. infantis MIC,[1],>3000 µg/mL
same,S. aureus MIC,[2],3000 µg/mL
same,E. coli MIC,[3],3000 µg/mL
CC[C@H](C)[C@H](NC(=O)[C@@H]1CCCN1C(=O)[C@@H](N)CCC(=O)O)C(=O)N1CCC[C@H]1C(=O)N[C@@H](CC(C)C)C(=O)N[C@@H](CCC(=O)O)C(=O)N[C@@H](CO)C(=O)N[C@@H](CCCNC(=N)N)C(=O)N[C@@H](CCC(=O)O)C(=O)N[C@@H](CCC(=O)O)C(=O)O [Peptide 5] (H-EPIPLESREE-OH),B. infantis MIC,[1],>3000 µg/mL
same,S. aureus MIC,[2],2500 µg/mL
same,E. coli MIC,[3],2500 µg/mL
CC[C@H](C)[C@H](NC(=O)[C@H](CCC(N)=O)NC(=O)[C@H](C)NC(=O)[C@H](Cc1c[nH]cn1)NC(=O)[C@@H]1CCCN1C(=O)[C@H](CCCNC(=N)N)NC(=O)[C@@H](NC(=O)[C@@H](NC(=O)[C@H](C)NC(=O)[C@@H]1CCCN1C(=O)[C@H](CC(N)=O)NC(=O)[C@H](C)NC(=O)[C@@H](N)Cc1ccc(O)cc1)C(C)C)C(C)C)C(=O)N1CCC[C@H]1C(=O)N[C@@H](CCC(N)=O)C(=O)N[C@@H](CCCNC(=N)N)C(=O)O [Peptide 6] (H-YANPAVVRPHAQIPQR-OH; N-terminus and C-terminus assumed),B. infantis MIC,[1],>3000 µg/mL
same,S. aureus MIC,[2],>3000 µg/mL
same,E. coli MIC,[3],>3000 µg/mL
CC(C)C[C@H](NC(=O)[C@H](CC(N)=O)NC(=O)[C@@H]1CCCN1C(=O)[C@@H](N)CCCNC(=N)N)C(=O)N[C@@H](Cc1c[nH]cn1)C(=O)N1CCC[C@H]1C(=O)N[C@@H](CO)C(=O)O [Peptide 7] (H-RPNLHPS-OH),B. infantis MIC,[1],>3000 µg/mL
same,S. aureus MIC,[2],3000 µg/mL
same,E. coli MIC,[3],3000 µg/mL
NCCCC[C@H](NC(=O)CNC(=O)[C@H](Cc1ccccc1)NC(=O)[C@H](CCCCN)NC(=O)[C@@H](N)CCC(=O)O)C(=O)N[C@@H](CC(=O)O)C(=O)N[C@@H](CCCCN)C(=O)N[C@@H](CO)C(=O)N1CCC[C@H]1C(=O)N[C@@H](CCCCN)C(=O)N[C@@H](Cc1ccccc1)C(=O)N[C@@H](CCC(N)=O)C(=O)O [Peptide 8] (H-EKFGKDKSPKFQ-OH),B. infantis MIC,[1],>3000 µg/mL
same,S. aureus MIC,[2],3000 µg/mL
same,E. coli MIC,[3],3000 µg/mL
CSCC[C@H](NC(=O)[C@@H](N)CC(=O)O)C(=O)N[C@@H](CC(C)C)C(=O)N[C@H](C(=O)N[C@H](C(=O)N[C@@H](CC(=O)O)C(=O)N1CCC[C@H]1C(=O)N[C@@H](CCCCN)C(=O)O)C(C)C)C(C)C [Peptide 9] (H-DMLVVDPK-OH; N-terminus and C-terminus assumed),B. infantis MIC,[1],>3000 µg/mL
same,S. aureus MIC,[2],3000 µg/mL
same,E. coli MIC,[3],3000 µg/mL
CC[C@H](C)[C@H](NC(=O)[C@@H](NC(=O)[C@@H]1CCCN1C(=O)[C@H](CC(C)C)NC(=O)[C@H](C)NC(=O)[C@H](CO)NC(=O)[C@@H](NC(=O)[C@@H](N)CCSC)[C@@H](C)O)[C@@H](C)CC)C(=O)N[C@@H](CCC(N)=O)C(=O)N[C@@H](CCCCN)C(=O)O [Peptide 10] (H-MTSALPIIQK-OH),B. infantis MIC,[1],>3000 µg/mL
same,S. aureus MIC,[2],>3000 µg/mL
same,E. coli MIC,[3],>3000 µg/mL
PYVRYL,Function (known bioactive peptides in the infant intestinal samples),[4],ACE-inhibitory; also recorded: Antimicrobial; also recorded: Antioxidant
QELLLNPTHQIYPVTQPLAPVHNPISV,Function (known bioactive peptides in the infant intestinal samples),[4],Antimicrobial
QEPVLGPVRGPFPIIV,Function (known bioactive peptides in the infant intestinal samples),[4],ACE-inhibitory
QVVPYPQ,Function (known bioactive peptides in the infant intestinal samples),[4],Antioxidant
RELEELNVPGEIVESLSSSEESITR,Function (known bioactive peptides in the infant intestinal samples),[4],Caseinophosphopeptide; also recorded: Immunomodulatory
RETIESLSSSEESITEYK,Function (known bioactive peptides in the infant intestinal samples),[4],Cell-proliferative
SDIPNPIGSENSEK,Function (known bioactive peptides in the infant intestinal samples),[4],Antimicrobial
SPTIPFFDPQIPK,Function (known bioactive peptides in the infant intestinal samples),[4],Cell-proliferative
TEDELQDKIHPF,Function (known bioactive peptides in the infant intestinal samples),[4],Antimicrobial
TKKTKLTEEEKNRL,Function (known bioactive peptides in the infant intestinal samples),[4],Antimicrobial
TKVIPYVRYL,Function (known bioactive peptides in the infant intestinal samples),[4],Antimicrobial
TPEVDDEALEK,Function (known bioactive peptides in the infant intestinal samples),[4],Antimicrobial; also recorded: DPP-IV-inhibitory
TVYTKGRVMP,Function (known bioactive peptides in the infant intestinal samples),[4],ACE-inhibitory
VENLHLPLPLL,Function (known bioactive peptides in the infant intestinal samples),[4],ACE-inhibitory
VKEAMAPK,Function (known bioactive peptides in the infant intestinal samples),[4],Antimicrobial; also recorded: Antioxidant
VLGPVRGPFP,Function (known bioactive peptides in the infant intestinal samples),[4],ACE-inhibitory
VLPVPQKAVPYPQR,Function (known bioactive peptides in the infant intestinal samples),[4],Antimicrobial
VLVLDTDYK,Function (known bioactive peptides in the infant intestinal samples),[4],Antimicrobial; also recorded: DPP-IV-inhibitory
VYPFPGPI,Function (known bioactive peptides in the infant intestinal samples),[4],PEP-inhibitory
VYPFPGPIPN,Function (known bioactive peptides in the infant intestinal samples),[4],ACE-inhibitory; also recorded: Antioxidant
VYVEELKPTPEGDLEILLQK,Function (known bioactive peptides in the infant intestinal samples),[4],Hypocholesterolemic
WSVPQPK,Function (known bioactive peptides in the infant intestinal samples),[4],ACE-inhibitory; also recorded: Antioxidant
YANPAVVRP,Function (known bioactive peptides in the infant intestinal samples),[4],ACE-inhibitory
YLGYLEQLLR,Function (known bioactive peptides in the infant intestinal samples),[4],Anxiolytic
YQEPVLGPVR,Function (known bioactive peptides in the infant intestinal samples),[4],ACE-inhibitory; also recorded: Immunomodulatory
YQEPVLGPVRGPFPI,Function (known bioactive peptides in the infant intestinal samples),[4],Antimicrobial
YQEPVLGPVRGPFPIIV,Function (known bioactive peptides in the infant intestinal samples),[4],ACE-inhibitory; also recorded: Antimicrobial; also recorded: Antithrombin; also recorded: Immunomodulatory
YQKFPQY,Function (known bioactive peptides in the infant intestinal samples),[4],ACE-inhibitory; also recorded: Antioxidant
